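GI50 = concentration required for 50% inhibition of growth. TGI denotes the concentration required for complete inhibition of growth.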
Key:
Assay in all cases: NCI anticancer screen, dose series, 384-well format
786-0 renal = test system: 786-0 renal
A498 renal = test system: A498 renal
A549 NSCLC = test system: A549 NSCLC
ACHN renal = test system: ACHN renal
BT-549 breast = test system: BT-549 breast
CAKI-1 renal = test system: CAKI-1 renal
DU-145 prostate = test system: DU-145 prostate
EKVX NSCLC = test system: EKVX NSCLC
HCC-2998 colon = test system: HCC-2998 colon
HCT-116 colon = test system: HCT-116 colon
HCT-15 colon = test system: HCT-15 colon
HL-60(TB) leukemia = test system: HL-60(TB) leukemia
HOP-62 NSCLC = test system: HOP-62 NSCLC
HOP-92 NSCLC = test system: HOP-92 NSCLC
HT29 colon = test system: HT29 colon
IGROV1 ovarian = test system: IGROV1 ovarian
KM12 colon = test system: KM12 colon
LOX IMVI melanoma = test system: LOX IMVI melanoma
M14 melanoma = test system: M14 melanoma
MALME-3M melanoma = test system: MALME-3M melanoma
MCF7 breast = test system: MCF7 breast
MDA-MB-468 breast = test system: MDA-MB-468 breast
NCI-H226 lung = test system: NCI-H226 lung
OVCAR-4 ovarian = test system: OVCAR-4 ovarian
PC-3 prostate = test system: PC-3 prostate
RPMI-8226 leukemia = test system: RPMI-8226 leukemia
RXF 393 renal = test system: RXF 393 renal
SF-268 CNS = test system: SF-268 CNS
SK-MEL-28 melanoma = test system: SK-MEL-28 melanoma
SK-MEL-5 melanoma = test system: SK-MEL-5 melanoma
SNB-19 CNS = test system: SNB-19 CNS
SNB-75 CNS = test system: SNB-75 CNS
SW-620 colon = test system: SW-620 colon
T-47D breast = test system: T-47D breast
TK-10 renal = test system: TK-10 renal
U251 glioblastoma = test system: U251 glioblastoma
UACC-257 melanoma = test system: UACC-257 melanoma
UACC-62 melanoma = test system: UACC-62 melanoma
UO-31 renal = test system: UO-31 renal

## CC(=O)c1nc(-c2ccc(C[C@@H](CNC(=O)CN(C)C)NC(=O)c3ccc(OC(C)C)c(Cl)c3)cc2)cn1C
786-0 renal
  GI50: 18.4 nM
  TGI: 14000 nM
A498 renal
  GI50: 39 nM
  TGI: 19400 nM
A549 NSCLC
  GI50: 36.7 nM
  TGI: 16500 nM
ACHN renal
  GI50: 11000 nM
  TGI: 23200 nM
BT-549 breast
  GI50: 25.8 nM
  TGI: 13600 nM
CAKI-1 renal
  GI50: 45.4 nM
  TGI: 16500 nM
DU-145 prostate
  GI50: 16.9 nM
  TGI: 15900 nM
EKVX NSCLC
  GI50: 24.1 nM
  TGI: 17300 nM
HCC-2998 colon
  GI50: 18.1 nM
  TGI: 6860 nM
HCT-116 colon
  GI50: 34.1 nM
  TGI: 15100 nM
HCT-15 colon
  GI50: 47.1 nM
  TGI: 16100 nM
HL-60(TB) leukemia
  GI50: 14.9 nM
  TGI: 29 nM
HOP-62 NSCLC
  GI50: 41.4 nM
  TGI: 20700 nM
HOP-92 NSCLC
  GI50: 1820 nM
  TGI: 18200 nM
HT29 colon
  GI50: 13 nM
  TGI: 60 nM
IGROV1 ovarian
  GI50: 54.1 nM
  TGI: 20400 nM
KM12 colon
  GI50: 13.9 nM
  TGI: 19800 nM
LOX IMVI melanoma
  GI50: 62.8 nM
  TGI: 18000 nM
M14 melanoma
  GI50: 17.4 nM
  TGI: 51.5 nM
MALME-3M melanoma
  GI50: 61.3 nM
  TGI: 1700 nM
MCF7 breast
  GI50: 60.1 nM
  TGI: 18200 nM
MDA-MB-468 breast
  TGI: 29.5 nM
NCI-H226 lung
  GI50: 12200 nM
  TGI: 24600 nM
OVCAR-4 ovarian
  GI50: 12500 nM
  TGI: 25100 nM
PC-3 prostate
  GI50: 31.4 nM
  TGI: 19100 nM
RPMI-8226 leukemia
  GI50: 21.3 nM
  TGI: 42.9 nM
RXF 393 renal
  GI50: 19.2 nM
  TGI: 10900 nM
SF-268 CNS
  GI50: 12.3 nM
  TGI: 43.9 nM
SK-MEL-28 melanoma
  GI50: 1130 nM
  TGI: 7500 nM
SK-MEL-5 melanoma
  GI50: 25.4 nM
  TGI: 1180 nM
SNB-19 CNS
  GI50: 14.5 nM
  TGI: 21500 nM
SNB-75 CNS
  GI50: 55.8 nM
  TGI: 15800 nM
SW-620 colon
  GI50: 47.3 nM
  TGI: 20600 nM
T-47D breast
  GI50: 22.7 nM
  TGI: 13100 nM
TK-10 renal
  GI50: 10200 nM
  TGI: 21900 nM
U251 glioblastoma
  GI50: 16.2 nM
  TGI: 16900 nM
UACC-257 melanoma
  GI50: 68.3 nM
  TGI: 1760 nM
UACC-62 melanoma
  GI50: 16.1 nM
  TGI: 17900 nM
UO-31 renal
  GI50: 823 nM
  TGI: 20900 nM

Reference: PubChem BioAssay (NCI)
